Reference: patent US20120071451A1, “METHOD OF TREATING NONALCOHOLIC STEATOHEPATITIS WITH ELEVATED DOSES OF URSODEOXYCHOLIC ACID” (Aptalis Pharma Canada Inc., priority 2009, published 2012)
“Also recorded” adds a separate entry of the source.

Legend:
NASH patients = conditions: one year, 13-15 mg/kg/day; cited from earlier work
patients with NASH [1] = conditions: two years, 13-15 mg/kg/day; cited from earlier work
[2] = system: patients with histologically proven NASH; test: Multicenter randomized double-blind placebo-controlled clinical study of 28-35 mg/kg/day UDCA for treating NASH; assay type: in vivo, human; conditions: for Normalization ALAT: percent pts with normalized ALAT at 12 months; for Normalization ASAT: percent pts with normalized ASAT at 12 months
Experimental: A multicenter randomized double-blind placebo-controlled study was conducted to examine the efficacy and tolerability of 28-35 mg/kg/day UDCA in patients with histologically proven NASH, ALAT and/or ASAT greater than 50 IU/L. A total of 120 patients were planned to receive either UDCA or placebo for a period of 12 months. Treatment was administered with meals. During the study, liver biochemistry, tolerability and side effects were monitored regularly. During the study, overweight and obese patients were encouraged to lose weight by following a hypocaloric diet and to maintain a certain level of physical activity. Drug treatments taken by patients for associated medical conditions were allowed. At the end of the 12th month, patients underwent an end of study evaluation and study treatments were stopped.
Inclusion criteria: age of patients higher than 18 years; liver biopsy compatible with NASH: presence of steatosis >20% associated with hepatocyte ballooning and/or hepatic lobule necrosis during the last 18 months; ALAT or ASAT levels >50 IU/L at the screening visit (with at least 3 elevated transaminase levels in the last 12 months)
Exclusion criteria: hepatic biopsy done before the last 18 months; no more than one normal value of transaminases during the last 12 months; patient was treated by UDCA during the last 12 months; loss of weight of more than 15% between the time of the hepatic biopsy and the screening; alcohol consumption higher than 20 g/day for women or higher than 30 g/day for men; presence of other causes of hepatitis such as chronic hepatitis B or C, increased serum ferritin associated with homozygosity for the C282Y mutation, primary biliary cirrhosis, primary sclerosing cholangitis, well documented autoimmune hepatitis (specific autoantibody, hpergammaglobulinaemia, histology-compatible), alpha-1 anti-trypsin deficiency, Wilson's disease, HIV infection; secondary causes of NASH: long term amiodarone-induced NASH, corticotherapy, obesity surgery within the last 2 years, Tamoxifen® treatment; Child's B or Child's C grade cirrhosis; presence of liver carcinoma; currently treated or treated during the past three years of hepatic biopsy with rosilitazone or pioglitazone; treatment with vitamin E during the past six months before screening; pregnant or breastfeeding women; unavailable histology slides for reading by the central laboratory.
Discontinuation criteria: Subjects were free to discontinue the study at any time for any or for no reason, and without prejudice to further treatment. Patients who withdrew subsequent to the pre-study evaluations but before receiving any study medication were not considered dropouts and were not included in the database. Patients who were included in the study and received at least one dose of study medication were included in the database and considered part of the safety population. Patients who were included in the study and received a dose of study medication and for whom at least one post-baseline evaluation was available were analyzed as part of the Intent-to-Treat (ITT) population. Patients from the ITT population who completed the study without any major protocol violations were analyzed as part of the Per Protocol (PP) population.
Main Endpoints: The primary endpoint was percent change in ALAT at 12 months vs. baseline. The secondary endpoints included: percent change in ASAT at 12 months vs. baseline; percent change Gamma-GT at 12 months vs. baseline; percent pts with normalized ALAT at 12 months; percent pts with normalized ASAT at 12 months; change in fibrosis index (FibroTest); change in inflammation index (Actitest); change in metabolic syndrome markers; and safety.
FibroTest is a non-invasive blood test that provides a quantitative estimate of liver fibrosis and can be used to predict advanced fibrosis. ActiTest is a non-invasive blood test that is used to assess the activity of liver disease by measuring the degree of necrosis and inflammation. […]

[3] = cited from earlier work
patients with NASH [4] = conditions: 15 mg/kg/day; cited from earlier work
adult patients with PSC = conditions: cited from earlier work
[5] = 28-35 mg/kg/day UDCA in NASH patients
[6] = mean change at 12 months vs. baseline, ITT, 30 mg/kg/day
[7] = by the end of the study, n=76, 28-30 mg/kg/day

Q: Which results are given for `C[C@H](CCC(=O)O)[C@H]1CC[C@H]2[C@@H]3[C@@H](O)C[C@@H]4C[C@H](O)CC[C@]4(C)[C@H]3CC[C@]12C` [UDCA, 3α, 7β-dihydroxy-5β-cholan-24-oic acid]?
A: Fibrosis or inflammation (NASH patients): did not change; Liver enzyme and steatosis levels (NASH patients): improved; Efficacy, UDCA treatment group versus placebo group (patients with NASH [1]): did not show any differences; Asthenia and RUQP [2, 5]: symptomatic improvement; Safety [2, 5]: without any significant safety concerns; ActiTest (effect on liver inflammation) change vs. baseline, Mean ([2]; ITT, at 6 months): −31.41%; FibroTest (effect on fibrosis) change vs. baseline, Mean ([2]; ITT, at 6 months): −9.15%; ActiTest (effect on liver inflammation) change vs. baseline, Mean ([2]; ITT, at 12 months): −30.97%; FibroTest (effect on fibrosis) change vs. baseline, Mean ([2]; ITT, at 12 months): −8.11%; ActiTest (effect on liver inflammation) change vs. baseline, Mean ([2]; PP, at 6 months): −31.23%; FibroTest (effect on fibrosis) change vs. baseline, Mean ([2]; PP, at 6 months): −9.68%; ActiTest (effect on liver inflammation) change vs. baseline, Mean ([2]; PP, at 12 months): −27.33%; FibroTest (effect on fibrosis) change vs. baseline, Mean ([2]; PP, at 12 months): −5.40%; GI symptoms (diarrhea, abdominal pain, motility problems) frequency versus placebo group ([2]; UDCA treatment group vs placebo group): −3 ×; Glycemia ([2]; UDCA treatment group, increased in placebo group (p=0.023)): remained stable; HbA1c versus placebo ([2]; at 6 and 12 months (p<0.05)): lower; Insulinemia versus placebo ([2]; at 12 months (p=0.038)): lower; Fibrosis levels compared to placebo group ([2]; both ITT and PP populations): significant improvement; Liver inflammation levels compared to placebo group ([2]; both ITT and PP populations): significant improvement; Mild diarrhea, abdominal pain, and gastrointestinal motility disorders versus placebo group ([2]; human, in vivo): more; Time of maximum effect, percent change from baseline ALAT ([2]; human, in vivo): 3 months; Time of maximum effect, percent change from baseline ASAT ([2]; human, in vivo): 3 months; Time of maximum effect, percent change from baseline in Gamma-GT ([2]; human, in vivo): 6 months; Δ % ALAT (SD) [2, 6]: −28±55%; Δ % ASAT (SD) [2, 6]: −8±59%; Δ % Gamma-GT (SD) [2, 6]: −51±28%; Individual effect on fibrosis: Fibrosis Decreased ([2]; percent of patients): 35.7%; Individual effect on fibrosis: Fibrosis Increased ([2]; percent of patients): 8.9%; Individual effect on fibrosis: Fibrosis Stable ([2]; percent of patients): 55.4%; Normalization ALAT ([2]; ITT): 25%; Normalization ALAT ([2]; PPP): 29%; Normalization ASAT ([2]; ITT): 32%; Normalization ASAT ([2]; PPP): 36%; Solubility in chloroform ([3]; chloroform): slightly soluble; Solubility in ethanol ([3]; ethanol): freely soluble; Solubility in ether ([3]; ether): sparingly soluble; Solubility in glacial acetic acid ([3]; glacial acetic acid): freely soluble; Solubility in intestinal fluids ([3]; intestinal fluids, compared with water): more soluble; Solubility in water ([3]; water): virtually insoluble; also recorded: practically insoluble; ALAT and Gamma-GT levels (patients with NASH [4]): significant reduction; Steatosis, necroinflammation, or fibrosis (patients with NASH [4]): no improvements; Risk of a primary endpoint versus placebo (adult patients with PSC; adjusted for baseline stratification characteristics (p=0.011)): 2.2 times; Patients who had reached one of the pre-established clinical endpoints (number) (adult patients with PSC; [7]): 28 patients; Patients who had reached one of the pre-established clinical endpoints (percent) (adult patients with PSC; [7]): 37%; Amount of decrease of ASAT and AP levels versus placebo (adult patients with PSC; during therapy (p<0.01)): greater; Adjusted relative risk for death or transplantation (adult patients with PSC; versus placebo (p=0.029)): 3.3; Serious adverse events (adult patients with PSC; vs. 43% placebo, p=0.03): 61%
